Legend:
[1] = target: T1, Alpha-1A adrenergic receptor (Homo sapiens, UniProt P35348); assay type: functional, cell-based
T1 sequence (P35348 whole entry): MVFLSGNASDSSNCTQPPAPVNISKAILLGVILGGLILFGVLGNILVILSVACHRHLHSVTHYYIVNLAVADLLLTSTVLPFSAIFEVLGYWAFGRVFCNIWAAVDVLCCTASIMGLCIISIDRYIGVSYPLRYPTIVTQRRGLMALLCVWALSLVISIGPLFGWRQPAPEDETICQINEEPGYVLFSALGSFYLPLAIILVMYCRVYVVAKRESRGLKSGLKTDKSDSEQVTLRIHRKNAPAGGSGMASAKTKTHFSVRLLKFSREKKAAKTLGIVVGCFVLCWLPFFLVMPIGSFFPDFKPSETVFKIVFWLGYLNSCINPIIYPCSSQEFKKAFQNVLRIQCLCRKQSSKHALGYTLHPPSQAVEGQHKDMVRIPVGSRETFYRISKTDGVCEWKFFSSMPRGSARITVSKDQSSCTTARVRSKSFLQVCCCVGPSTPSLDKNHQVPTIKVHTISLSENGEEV

D(1A) dopamine receptor = D(1A) dopamine receptor (Homo sapiens, UniProt P21728)
Prothrombin = Prothrombin (Homo sapiens, UniProt P00734); assay type: functional
Histamine H3 receptor = Histamine H3 receptor (Homo sapiens, UniProt Q9Y5N1)
[2] = target: T2, 5-hydroxytryptamine receptor 1A (Homo sapiens, UniProt P08908)
T2 sequence (P08908 whole entry): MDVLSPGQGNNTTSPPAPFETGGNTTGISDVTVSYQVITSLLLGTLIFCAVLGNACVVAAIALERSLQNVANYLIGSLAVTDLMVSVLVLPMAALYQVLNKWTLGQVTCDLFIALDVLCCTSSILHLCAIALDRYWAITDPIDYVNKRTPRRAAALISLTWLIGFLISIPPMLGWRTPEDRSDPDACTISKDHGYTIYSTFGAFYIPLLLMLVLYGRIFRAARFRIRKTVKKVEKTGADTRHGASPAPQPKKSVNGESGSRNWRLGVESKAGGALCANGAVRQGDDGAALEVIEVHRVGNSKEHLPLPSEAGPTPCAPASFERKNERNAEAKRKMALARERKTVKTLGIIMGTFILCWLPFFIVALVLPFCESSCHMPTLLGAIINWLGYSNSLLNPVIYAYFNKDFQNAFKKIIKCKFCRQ

[3] = target: 5-hydroxytryptamine receptor 2B (Homo sapiens, UniProt P41595); assay type: functional, cell-based
[4] = target: T3, Amine oxidase [flavin-containing] A (Homo sapiens, UniProt P21397); assay type: functional
T3 sequence (P21397 whole entry): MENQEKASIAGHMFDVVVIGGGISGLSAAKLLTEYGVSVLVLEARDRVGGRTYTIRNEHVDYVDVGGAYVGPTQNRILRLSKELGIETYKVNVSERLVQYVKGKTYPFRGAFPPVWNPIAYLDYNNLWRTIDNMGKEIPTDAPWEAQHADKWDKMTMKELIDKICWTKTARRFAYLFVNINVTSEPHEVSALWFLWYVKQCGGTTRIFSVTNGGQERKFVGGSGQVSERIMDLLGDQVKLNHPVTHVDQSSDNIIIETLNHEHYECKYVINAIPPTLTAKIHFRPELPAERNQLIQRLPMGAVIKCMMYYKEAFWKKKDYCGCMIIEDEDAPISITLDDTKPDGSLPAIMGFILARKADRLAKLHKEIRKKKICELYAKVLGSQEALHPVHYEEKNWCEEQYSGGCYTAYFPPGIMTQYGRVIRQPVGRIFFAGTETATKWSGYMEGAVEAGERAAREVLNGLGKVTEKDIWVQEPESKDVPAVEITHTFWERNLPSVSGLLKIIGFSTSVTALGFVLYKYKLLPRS

Progesterone receptor = target: T4, Progesterone receptor (Homo sapiens, UniProt P06401)
T4 sequence (P06401 whole entry): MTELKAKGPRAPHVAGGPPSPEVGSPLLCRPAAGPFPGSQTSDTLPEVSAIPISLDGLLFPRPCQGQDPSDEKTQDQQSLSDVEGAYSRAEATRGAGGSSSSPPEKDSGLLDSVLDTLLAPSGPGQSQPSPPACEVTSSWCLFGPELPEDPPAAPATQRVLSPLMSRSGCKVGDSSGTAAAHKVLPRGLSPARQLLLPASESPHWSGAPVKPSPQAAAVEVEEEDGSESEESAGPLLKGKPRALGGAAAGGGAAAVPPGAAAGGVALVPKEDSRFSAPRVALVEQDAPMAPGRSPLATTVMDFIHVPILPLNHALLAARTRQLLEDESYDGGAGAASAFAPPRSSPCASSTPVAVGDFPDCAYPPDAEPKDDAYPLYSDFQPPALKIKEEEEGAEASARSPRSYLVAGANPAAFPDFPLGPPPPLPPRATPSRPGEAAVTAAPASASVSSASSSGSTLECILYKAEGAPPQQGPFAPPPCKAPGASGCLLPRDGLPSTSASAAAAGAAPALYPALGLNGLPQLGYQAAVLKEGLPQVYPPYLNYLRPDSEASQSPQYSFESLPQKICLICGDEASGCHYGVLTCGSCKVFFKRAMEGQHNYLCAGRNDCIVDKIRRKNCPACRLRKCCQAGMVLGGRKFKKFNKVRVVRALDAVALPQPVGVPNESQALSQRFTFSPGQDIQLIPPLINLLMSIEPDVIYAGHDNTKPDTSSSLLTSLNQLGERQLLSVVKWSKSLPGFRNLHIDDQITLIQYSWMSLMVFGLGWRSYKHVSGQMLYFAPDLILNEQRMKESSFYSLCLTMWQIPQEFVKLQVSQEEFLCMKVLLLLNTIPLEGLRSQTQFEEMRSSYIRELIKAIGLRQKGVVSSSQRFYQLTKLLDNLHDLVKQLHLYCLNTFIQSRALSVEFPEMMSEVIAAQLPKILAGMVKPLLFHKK

[5] = target: T5, Prostaglandin G/H synthase 1 (Homo sapiens, UniProt P23219); assay type: functional
[6] = target: T5, Prostaglandin G/H synthase 1; assay type: functional; remark: listed apart in the source
[7] = target: Sodium-dependent dopamine transporter (Homo sapiens, UniProt Q01959)
Also: assay procedure not described here.

Sequence of D(1A) dopamine receptor (P21728 whole entry): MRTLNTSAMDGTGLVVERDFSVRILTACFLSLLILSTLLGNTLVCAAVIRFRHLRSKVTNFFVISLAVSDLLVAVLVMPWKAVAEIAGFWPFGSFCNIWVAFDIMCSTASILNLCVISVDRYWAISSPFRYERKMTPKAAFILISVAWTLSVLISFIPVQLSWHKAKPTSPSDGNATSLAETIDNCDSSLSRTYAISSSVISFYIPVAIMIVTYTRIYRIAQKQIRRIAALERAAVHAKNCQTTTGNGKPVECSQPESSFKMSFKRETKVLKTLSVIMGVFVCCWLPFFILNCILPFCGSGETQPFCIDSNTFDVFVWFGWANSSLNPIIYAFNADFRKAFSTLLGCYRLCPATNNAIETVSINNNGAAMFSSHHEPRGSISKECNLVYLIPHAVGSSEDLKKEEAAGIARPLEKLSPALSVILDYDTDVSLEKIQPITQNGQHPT
Sequence of Sodium-dependent dopamine transporter (Q01959 whole entry): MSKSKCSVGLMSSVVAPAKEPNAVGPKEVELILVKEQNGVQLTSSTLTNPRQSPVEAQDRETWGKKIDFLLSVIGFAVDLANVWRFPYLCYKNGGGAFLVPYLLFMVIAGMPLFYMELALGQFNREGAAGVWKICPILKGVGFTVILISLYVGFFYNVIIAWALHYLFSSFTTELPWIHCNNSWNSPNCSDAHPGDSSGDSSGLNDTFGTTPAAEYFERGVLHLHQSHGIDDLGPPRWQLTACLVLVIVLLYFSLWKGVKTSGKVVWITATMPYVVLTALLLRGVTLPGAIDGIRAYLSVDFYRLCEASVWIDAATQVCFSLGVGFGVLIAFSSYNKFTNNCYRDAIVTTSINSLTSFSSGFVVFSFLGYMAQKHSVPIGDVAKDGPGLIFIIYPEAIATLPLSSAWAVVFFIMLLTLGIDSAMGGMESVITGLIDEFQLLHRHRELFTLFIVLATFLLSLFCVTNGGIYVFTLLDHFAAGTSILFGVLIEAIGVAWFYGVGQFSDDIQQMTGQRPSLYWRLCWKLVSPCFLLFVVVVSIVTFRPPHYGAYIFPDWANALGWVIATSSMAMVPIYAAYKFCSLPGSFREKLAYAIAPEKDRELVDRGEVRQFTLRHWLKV
Sequence of 5-hydroxytryptamine receptor 2B (P41595 whole entry): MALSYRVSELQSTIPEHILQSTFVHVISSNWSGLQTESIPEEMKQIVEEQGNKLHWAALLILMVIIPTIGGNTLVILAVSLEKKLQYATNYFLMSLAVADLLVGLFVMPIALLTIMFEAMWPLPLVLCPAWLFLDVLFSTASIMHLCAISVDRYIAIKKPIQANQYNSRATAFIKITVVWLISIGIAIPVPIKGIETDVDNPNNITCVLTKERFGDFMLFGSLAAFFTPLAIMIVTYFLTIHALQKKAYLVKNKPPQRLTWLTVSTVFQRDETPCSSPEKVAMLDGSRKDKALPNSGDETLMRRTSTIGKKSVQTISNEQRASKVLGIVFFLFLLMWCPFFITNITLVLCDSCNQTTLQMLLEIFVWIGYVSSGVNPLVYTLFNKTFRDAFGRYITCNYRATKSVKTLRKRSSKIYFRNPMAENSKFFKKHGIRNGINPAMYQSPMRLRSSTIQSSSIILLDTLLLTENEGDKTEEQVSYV
Sequence of Histamine H3 receptor (Q9Y5N1 whole entry): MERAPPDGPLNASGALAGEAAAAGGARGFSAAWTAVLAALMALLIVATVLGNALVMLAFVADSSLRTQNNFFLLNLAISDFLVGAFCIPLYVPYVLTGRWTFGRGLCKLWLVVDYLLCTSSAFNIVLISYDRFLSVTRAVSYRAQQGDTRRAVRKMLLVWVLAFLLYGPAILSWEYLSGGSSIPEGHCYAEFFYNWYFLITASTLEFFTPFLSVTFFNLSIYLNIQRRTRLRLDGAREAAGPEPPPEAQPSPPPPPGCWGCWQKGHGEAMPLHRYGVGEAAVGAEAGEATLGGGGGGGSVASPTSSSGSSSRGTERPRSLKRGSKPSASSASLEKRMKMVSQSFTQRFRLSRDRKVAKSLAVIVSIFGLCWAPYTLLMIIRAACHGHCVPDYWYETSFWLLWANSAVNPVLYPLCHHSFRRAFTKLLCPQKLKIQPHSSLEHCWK
T5 sequence (P23219 whole entry): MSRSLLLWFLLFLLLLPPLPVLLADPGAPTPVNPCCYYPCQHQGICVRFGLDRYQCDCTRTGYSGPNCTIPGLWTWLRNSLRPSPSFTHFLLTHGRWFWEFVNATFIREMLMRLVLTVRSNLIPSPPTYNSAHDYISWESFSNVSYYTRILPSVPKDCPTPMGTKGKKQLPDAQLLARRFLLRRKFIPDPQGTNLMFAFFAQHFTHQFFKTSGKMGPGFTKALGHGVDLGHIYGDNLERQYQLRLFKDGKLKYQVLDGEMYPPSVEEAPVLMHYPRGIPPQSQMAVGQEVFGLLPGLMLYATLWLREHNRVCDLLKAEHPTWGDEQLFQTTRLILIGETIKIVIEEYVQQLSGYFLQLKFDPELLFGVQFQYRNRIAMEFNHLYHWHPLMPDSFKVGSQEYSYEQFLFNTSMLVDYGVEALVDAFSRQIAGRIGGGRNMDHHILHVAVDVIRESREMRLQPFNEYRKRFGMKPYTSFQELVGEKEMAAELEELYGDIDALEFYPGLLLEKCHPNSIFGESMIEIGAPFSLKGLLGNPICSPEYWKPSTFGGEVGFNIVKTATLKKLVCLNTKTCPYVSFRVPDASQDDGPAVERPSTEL

SMILES | AC50 [1] [µM] | AC50 (D(1A) dopamine receptor) [µM] | AC50 (Prothrombin) [µM] | AC50 (Histamine H3 receptor) [µM] | AC50 [2] [µM] | AC50 [3] [µM] | AC50 [4] [µM] | AC50 (Progesterone receptor) [µM] | AC50 [5] [µM] | AC50 [6] [µM] | AC50 [7] [µM]
NC(=O)NCCC[C@H](N)C(=O)O [L-CITRULLINE] | > 30 | > 30 | > 30 | > 30 | > 30 | > 30 | > 30 | > 30 | > 30 | > 30 | > 30
CC(=O)O[C@H]1C[C@H](O[C@H]2[C@@H](O)C[C@H](O[C@H]3[C@@H](O)C[C@H](O[C@H]4CC[C@@]5(C)[C@H](CC[C@@H]6[C@@H]5C[C@@H](O)[C@]5(C)[C@@H](C7=CC(=O)OC7)CC[C@]65O)C4)O[C@@H]3C)O[C@@H]2C)O[C@H](C)[C@H]1O[C@@H]1O[C@H](CO)[C@@H](O)[C@H](O)[C@H]1O [LANATOSIDE C] | > 30 | > 30 | > 30 | > 30 | > 30 | > 30 | > 30 | > 30 | > 30 | > 30 | > 30
Nc1nc(N)nc(Nc2ccc([As]3SCC(CO)S3)cc2)n1 (stereo not drawn) [MELARSOPROL] | > 30 | > 30 | > 30 | > 30 | > 30 | > 30 | > 30 | > 30 | > 30 | 23.5 | 29.2
Cc1cc(CCN2CCN(c3cccc(Cl)c3)CC2)n[nH]1 [MEPIPRAZOLE] | 0.43 | 0.591 | > 30 | > 30 | 0.003 | > 30 | > 30 | > 30 | > 30 | > 30 | 8.04
CC[N+](C)(CC)CCOC(=O)C1c2ccccc2Oc2ccccc21 [METHANTHELINE] | > 30 | > 30 | > 30 | > 30 | > 30 | > 30 | > 30 | > 30 | > 30 | > 30 | > 30
CO[C@H]1[C@@H](O)C[C@H](O[C@H]2[C@@H](O)C[C@H](O[C@H]3[C@@H](O)C[C@H](O[C@H]4CC[C@@]5(C)[C@H](CC[C@@H]6[C@@H]5C[C@@H](O)[C@]5(C)[C@@H](C7=CC(=O)OC7)CC[C@]65O)C4)O[C@@H]3C)O[C@@H]2C)O[C@@H]1C [METILDIGOXIN] | > 30 | > 30 | > 30 | > 30 | > 30 | > 30 | > 30 | > 30 | > 30 | > 30 | > 30
CC1(C)S[C@@H]2[C@H](NC(=O)[C@H](NC(=O)N3CCN(S(C)(=O)=O)C3=O)c3ccccc3)C(=O)N2[C@H]1C(=O)O [MEZLOCILLIN] | > 30 | > 30 | > 30 | > 30 | > 30 | > 30 | > 30 | > 30 | > 30 | > 30 | > 30
CCOC(=O)[C@H](CCc1ccccc1)N[C@@H](C)C(=O)N1Cc2cc(OC)c(OC)cc2C[C@H]1C(=O)O [MOEXIPRIL] | > 30 | > 30 | > 30 | > 30 | > 30 | > 30 | > 30 | > 30 | > 30 | > 30 | > 30

Reference: ChEMBL document CHEMBL5291721, “A preclinical secondary pharmacology resource illuminates target-adverse drug reaction associations of marketed drugs” (Nat Commun, 2023)
